One assay has as its system 4T1.2 cells. Briefly: Cell viability (acid phosphatase assay) of cancer cells treated with Ivermectin. In kind it is cell-based, mouse. The conditions noted are these: for effect on Ivermectin-induced cell death: cells treated with Ivermectin (32 μM, 4 h in figure legends) in the presence of the agent. As to the method: Cell viability. Cancer cells were plated on 96 well flat-bottom plates and allowed to attach overnight. Cells were then pre-incubated with drugs for 1 h and treated with Ivermectin for 4 h. In the case of 24 h and 48 h incubations the cells, Ivermectin and drugs were plated together. All treatments and controls were done in triplicate wells and results were validated in at least two independent experiments. Following treatment the plates were washed once with PBS and cell viability was measured using the acid phosphatase assay. Briefly, cells were incubated for 1h at 37° C. in 100 μL assay buffer (0.16 M sodium acetate, 0.1% Triton-X-100, supplemented with 4-Nitrophenyl phosphate disodium salt hexahydrate, Sigma Aldrich, at 0.00263 g/ml). Reaction was stopped using 10 μL of 1N sodium hydroxide. Absorption at 405 nm was measured within 10 min using a multi-well plate reader. Mode of cell death and viability of cells in suspension was evaluated using flow cytometry. Briefly, cancer cells were pre-incubated with drugs for 30 min to 1 h, as indicated, treated with Ivermectin for 4 h in 5 ml FACS tubes , washed twice in PBS and stained with PE-conjugated Annexin V and 7AAD (1 μl per 100 μl/200,000 cancer cells) for 15 min.

In assay [1] the test system is P2X4/P2X7/Pannexin-1 channels. Briefly: Membrane permeabilization to YOPRO-1. In kind it is cell-based, mouse. The conditions noted are these: 4T1.2 cells, 3 mM ATP and 32 μM Ivermectin. As to the method: FIGS. 3A-3G. Dual roles of ATP and purinergic signaling in Ivermectin's killing. FIG. 3A: Depletion of extracellular ATP with Apyrase (2500 μunits/ml) exacerbates killing of 4T1.2 cell by Ivermectin. FIG. 3B: Extracellular Ca^2− and ATP contain Ivermectin-induced cell swelling. 4T1.2 cells were treated with 32 μM Ivermectin for 4 h in the presence of 1 mM EDTA or 2500 μunits/ml Apyrase. FIG. 3C: Ivermectin (0.5-32 μM) and high concentrations of extracellular ATP (0.3-3 mM) synergistically open pannexin-1 channels and permeabilize the membrane on live cells (7AAD-positive dead cells were gated out). 4T1.2 cells were treated for 30 min as indicated in the presence of 7 AAD and 5 μM YOPRO-1. FIG. 3D: Analysis of supernatants from Ivermectin-treated murine and human TNBC cells showing rapid release of ATP followed by its transient depletion. Depletion of extracellular ATP with Apyrase (2500 μunits/ml) was used as a positive control. FIG. 3E: Analysis of membrane-proximal ATP levels using cancer cells engineered to express a membrane-bound Luciferase. […] FIG. 3G: The P2X7-specific inhibitor KN-62 (1-10 μM) blocks Ivermectin cytotoxicity (IVM 8-32 μM, 4-48 h treatments). Asterisk (*) indicates p<0.05 relative to untreated or Ivermectin alone controls, respectively.
FIGS. 10A-10L. Extracellular Dual roles of ATP and purinergic signaling in Ivermectin's killing. 4T1.2 cells were treated with Ivermectin for 4 h in the presence of different inhibitors at μM concentrations as indicated. FIG. 10A: The non-specific P2 purinergic receptor inhibitor Suramin (4-400 μM) exacerbates Ivermectin-induced cell death. FIG. 10B: Inhibition of extracellular ATPases with PSB 069 protects against Ivermectin cytotoxicity. FIG. 10C: Blockade of pannexin-1 channels with Panx-1 mimetic blocking peptide (Anaspec) and Probenecid at μM concentrations as indicated exacerbates killing. […] FIG. 10E: ATP plays a transiently protective role only in the mouse but not human breast cancer cells. 4T1.2 and MDA-MB-231 cells were treated with 32 μM Ivermectin for 4 h in the presence of ATP at mM concentrations as indicated. FIG. 10F: qPCR showing up-regulation of P2X4 and P2X7 receptors on several murine cancer cell lines, including 4T1.2 and DD-Her2/neu (breast), and B16 (melanoma). […] Expression of P2X and P2Y purinergic receptors, NOX family members, GABA, and Glycine receptors was analyzed using publicly available breast cancer cell lines datasets. Statistically significant (p<0.05) up-regulation and down-regulation in breast cancer versus normal cells is shown in red and blue, respectively. FIG. 10H: Correlation between sensitivity to Ivermectin and ATP across various human cancer cell lines. Cancer cells were treated for 24 h with 3 mM ATP or Ivermectin at 16 and 32 μM doses as indicated. […]

With `Clc1cccc(-c2nnnn2Cc2cccnc2)c1Cl` [A438079], the “effect on Ivermectin-induced cell death” value in the assay with 4T1.2 cells is “did not observe any protection”. Further, in assay [1], the “block of ATP+Ivermectin-induced membrane permeabilization to YOPRO-1” value (“block” below) is reported as “suppressed permeabilization to YOPRO-1 in a dose-dependent fashion”.

Take `CN([C@@H](Cc1ccc(OS(=O)(=O)c2cccc3cnccc23)cc1)C(=O)N1CCN(c2ccccc2)CC1)S(=O)(=O)c1cccc2cnccc12` [KN-62]: in the assay on 4T1.2 cells, the “KN-62 needed to protect against Ivermectin-induced cell death” value is on record as “More than 1 μM”; the “effect on Ivermectin-induced cell death” value was “effective at blocking Ivermectin-induced necrotic and apoptotic cell death”. Also, the “long-term protection against Ivermectin” value with 4T1.2 cells (24 h, 12 μM IVM) is “long-term protection against Ivermectin and ATP that extended up to 24 h”. Moreover, in assay [1], the “block” value was “suppressed permeabilization to YOPRO-1 in a dose-dependent fashion”.

With `COc1ccc(S(=O)(=O)N(CCO)c2ccccc2CN(C)C/C=C/c2ccc(Cl)cc2)cc1` [KN-93], the “effect on Ivermectin-induced cell death” value with 4T1.2 cells is “effectively blocked Ivermectin-induced cell death”. In addition, in assay [1], the “block” value was “most potent at blocking ATP- and Ivermectin-induced membrane permeabilization to YOPRO-1”.

(Values after patent US11058700B2, “Macrocyclic lactones and uses thereof as modulators of purinergic receptors” (City of Hope, priority 2015, dated 2021).)
